Values quoted from earlier work as cited in patent US4351830A (priority 1980, dated 1982).

Experiments:
[1] = literature
[2] = system: bacterial infections; settings: literature

Molecule	adjuvant effect [1]	protective activity against bacterial infections [2]
CC(=O)N[C@H]1C(O)O[C@H](CO)[C@@H](O)[C@@H]1O[C@H](C)C(=O)N[C@@H](C)C(=O)N[C@H](CCC(N)=O)C(=O)O (stereo partly drawn) [N-acetylmuramyl-L-alanyl-D-glutamine]	high adjuvant effect	–
CC(=O)N[C@H]1C(O)O[C@H](CO)[C@@H](O)[C@@H]1O[C@H](C)C(=O)N[C@@H](C)C(=O)N[C@H](CCC(=O)O)C(N)=O (stereo partly drawn) [N-acetylmuramyl-L-alanyl-D-isoglutamine]	high adjuvant effect	–
orthobenzoic acid oxide	–	exhibits a protective activity against bacterial infections
